# Data published in patent US10829464B2, “Benzoheterocyclic alkylamine compounds and use thereof” (priority 2016, dated 2020).
# Structures can show the parent of a compound that is named as a salt.
# Tests used:
# Microsporum gypseum = test: In vitro antifungal assay (micro liquid-based dilution); assay type: cell-based; settings: Nannizzia gypsea, read-out: Antifungal Activities, MIC80
# Trichophyton rubrum = test: as above; assay type: cell-based; settings: read-out: Antifungal Activities, MIC80
# Tinea barbae = test: as above; assay type: cell-based; settings: read-out: Antifungal Activities, MIC80
# [1] = system: Staphylococcus aureus subsp. aureus str. strain Newman; test: Preliminary screening assay of inhibition of staphyloxanthin synthesis; assay type: cell-based; settings: 50, 10, 5, 2.5, 1.25, 0.625, 0.3125 and 0 μM from left to right
# Description: Strains used for assay: freshly activated wild-type Staphylococcus aureus subsp. aureus str. strain Newman and its homologous mutant strain having crtN insertion (without staphyloxanthin synthesis).
# Medium for assay: Tryptone Soy broth (TSB), a product from Oxid Corporation, the United Kingdom, which was formulated with distilled water, sterilized at 121° C. for 15 min for later use.
# Method of Preliminary Screening Assay:
# (1) Preparation of compound: the compound of the invention was dissolved in dimethyl sulfoxide (DMSO) to prepare a stock solution having a concentration of 10 mM; 400 μL of DMSO was added to 100 μL of the stock solution to get a dilution with a concentration of 2 mM; 250 μL (2 mM) of the dilution was taken after mixing, and an equal amount of DMSO was added thereto for 2-fold dilution to get a solution with a concentration of […] for later use.
# (2) Culture of the strain: single colonies of strain Newman were picked from TSA plates into a test tube containing 4 mL of sterile TSB medium, and cultured at 37° C. and 250 rpm for 12 h for later use.
# S. aureus strain Newman = test: IC50 determination of inhibition of staphyloxanthin synthesis; assay type: cell-based; settings: Staphylococcus aureus; S. aureus strain Newman, Table 1; read-out: IC50, inhibitory activity on staphyloxanthin synthesis
# Description: Selection of compound concentrations: based on the preliminary screening results, the ability of each compound to inhibit staphyloxanthin synthesis was determined. […] According to the assay results, 10 different concentration gradients were designed for each compound, such that the ability to inhibit staphyloxanthin synthesis comprised substantially from 0% to 100%.
# Culture of the strains: single colonies of strain Newman and crtN mutant strain were picked from TSA plates, added into test tubes containing 4 mL of sterile TSB medium, and cultured at 37° C. and 250 rpm for 12 h for later use.
# The relative level of staphyloxanthin synthesis at each concentration of the compound of the invention=A450 (sample)/A450 (negative control)*100%. With the molar concentration of the compound as the abscissa and the relative level of staphyloxanthin synthesis as the ordinate, a curve fitting of inhibitor concentration-inhibition rate (log(inhibitor) vs response) was performed in Graphpad prism 5.0 software, and the IC50 of the compound for inhibiting staphyloxanthin synthesis was calculated by software based on the fitting results.
# S. aureus was selected for IC50 determination with respect to activity of inhibiting staphyloxanthin synthesis. […]
# HepG2 = test: In vitro cytotoxicity assay
# HEK293 = test: In vitro cytotoxicity assay
# CYP enzyme subtype 2C19 = CYP enzyme subtype 2C19 (Homo sapiens, UniProt P33261); test: Inhibition assay on hepatic CYP450 enzyme; assay type: in vitro ADME; settings: CYP 2C19; read-out: Half inhibitory concentration (IC50)
# CYP enzyme subtype 2C19, sequence (P33261 whole entry): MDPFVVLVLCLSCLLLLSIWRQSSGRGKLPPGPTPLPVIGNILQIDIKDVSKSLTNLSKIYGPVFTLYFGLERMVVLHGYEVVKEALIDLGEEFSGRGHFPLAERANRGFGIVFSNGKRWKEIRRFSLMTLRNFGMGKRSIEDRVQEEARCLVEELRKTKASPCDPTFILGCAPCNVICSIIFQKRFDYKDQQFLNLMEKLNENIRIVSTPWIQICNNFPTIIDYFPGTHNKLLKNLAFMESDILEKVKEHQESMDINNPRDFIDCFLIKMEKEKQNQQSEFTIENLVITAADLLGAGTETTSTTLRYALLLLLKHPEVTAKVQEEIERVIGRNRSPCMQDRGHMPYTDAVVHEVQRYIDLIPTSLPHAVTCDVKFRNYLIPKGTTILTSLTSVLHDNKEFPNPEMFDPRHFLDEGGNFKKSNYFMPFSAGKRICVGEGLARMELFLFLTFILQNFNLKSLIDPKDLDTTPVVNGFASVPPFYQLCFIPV
# Mu50 = test: In vivo pharmacodynamics evaluation in infected mice; settings: BALB/c mice infected retroorbitally with Mu50
# Description: (§1) Compound IA-25 was used as a representative compound. The laboratory SPF-grade female BALB/c mice were purchased from Shanghai Jiesijie Laboratory Animal Co., Ltd. and bred under aseptic condition to 6-8 weeks old. The S. aureus strains which had been cultured overnight were transferred to fresh and sterile TSB medium and cultured at 37° C. and 250 rpm for 3 h to exponential growth phase; the culture was washed twice with PBS buffer, and then suspended in PBS for later use. In the mouse infection assay, the mice were divided into several groups, each containing 10 mice.
# NRS271 = test: as above; settings: BALB/c mice infected retroorbitally with NRS271
# Description: as §1
# LRSA56 = test: as above; settings: BALB/c mice infected retroorbitally with LRSA56
# Description: as §1
# NRS108 = test: as above; settings: BALB/c mice infected retroorbitally with NRS108
# Description: as §1
# strain Newman = test: as above; settings: BALB/c mice infected retroorbitally with Newman
# Description: as §1
# NF65Y = test: as above; settings: BALB/c mice infected retroorbitally with NF65Y
# Description: as §1
# LRSA202 = test: as above; settings: BALB/c mice infected retroorbitally with LRSA202
# Description: as §1
# [2] = system: wild-type S. aureus Newman strain; test: Verification assay using CrtN as a target (HPLC of carotenoid extract); assay type: cell-based, Staphylococcus aureus; settings: 100 μM added to wild-type strain Newman, 440 nm
compound,measurement,setting,value
OC(Cn1cncn1)(Cn1cncn1)c1ccc(F)cc1F [Fluconazole],MIC80,Microsporum gypseum,8 µg/mL
same,MIC80,Trichophyton rubrum,1 µg/mL
same,MIC80,Tinea barbae,2 µg/mL
"CN(Cc1coc2ccccc12)C[C@@H]1C[C@H]1c1ccc(-c2ccccc2)cc1 [Compound IC-1, 1-((1R,2R)-2-([1,1′-biphenyl]-4-yl)cyclopropyl)-N-(benzofuran-3-ylmethyl)-N-methylmethanamine]",colors in final photograph of inhibition of staphyloxanthin synthesis,[1],white to yellow from left to right gradually
same,IC50,S. aureus strain Newman,> 1 µM
C[C@@H]1[C@H](O)[C@@H](C)/C=C/C=C/C=C/C=C/C=C/C=C/C=C/[C@H](O[C@@H]2O[C@H](C)[C@@H](O)[C@H](N)[C@@H]2O)C[C@@H]2O[C@](O)(C[C@@H](O)C[C@@H](O)[C@H](O)CC[C@@H](O)C[C@@H](O)CC(=O)O[C@H]1C)C[C@H](O)[C@H]2C(=O)O [Amphotericin B],CC50 of compounds on cells,HepG2,2.956 µg/mL
same,CC50 of compounds on cells,HEK293,3.923 µg/mL
"COc1ccc2[nH]c([S+]([O-])Cc3ncc(C)c(OC)c3C)nc2c1 (stereo not shown) [omeprazole, reference compound]",IC50,CYP enzyme subtype 2C19,3.88 µM
CN[C@H](CC(C)C)C(=O)N[C@H]1C(=O)N[C@@H](CC(N)=O)C(=O)N[C@H]2C(=O)N[C@H]3C(=O)N[C@H](C(=O)N[C@H](C(=O)O)c4cc(O)cc(O)c4-c4cc3ccc4O)[C@H](O)c3ccc(c(Cl)c3)Oc3cc2cc(c3O[C@@H]2O[C@H](CO)[C@@H](O)[C@H](O)[C@H]2O[C@H]2C[C@](C)(N)[C@H](O)[C@H](C)O2)Oc2ccc(cc2Cl)[C@H]1O [Vancomycin],Viable colony counts in vivo,Mu50,5.4 Log10CFU
same,Viable colony counts in vivo,NRS271,6.5 Log10CFU
same,Viable colony counts in vivo,LRSA56,3.8 Log10CFU
same,Viable colony counts in vivo,NRS108,2.4 Log10CFU
same,Viable colony counts in vivo,strain Newman,4.3 Log10CFU
same,Viable colony counts in vivo,NF65Y,4.6 Log10CFU
same,Viable colony counts in vivo,LRSA202,5.3 Log10CFU
"CN(C/C=C/c1ccccc1)Cc1cccc2ccccc12 [naftifine hydrochloride, reference compound]",HPLC absorption peaks of carotenoid extract,[2],absorption peaks at the original peak position disappeared again
CC(=O)N1CCN(c2ccc(OCC3COC(Cn4ccnc4)(c4ccc(Cl)cc4Cl)O3)cc2)CC1 (stereo not shown) [Ketoconazole],MIC80,Microsporum gypseum,2 µg/mL
same,MIC80,Trichophyton rubrum,0.5 µg/mL
same,MIC80,Tinea barbae,0.0625 µg/mL
C[C@@H](c1ncncc1F)[C@](O)(Cn1cncn1)c1ccc(F)cc1F [Voriconazole],MIC80,Microsporum gypseum,0.25 µg/mL
same,MIC80,Trichophyton rubrum,0.0312 µg/mL
same,MIC80,Tinea barbae,0.0312 µg/mL
CC(=O)NC[C@H]1CN(c2ccc(N3CCOCC3)c(F)c2)C(=O)O1 [Linezolid],Viable colony counts in vivo,Mu50,3.1 Log10CFU
same,Viable colony counts in vivo,NRS271,8.3 Log10CFU
same,Viable colony counts in vivo,LRSA56,4.6 Log10CFU
same,Viable colony counts in vivo,NRS108,2.3 Log10CFU
same,Viable colony counts in vivo,strain Newman,4.9 Log10CFU
same,Viable colony counts in vivo,NF65Y,5.1 Log10CFU
same,Viable colony counts in vivo,LRSA202,4.6 Log10CFU
"COc1ccc(/C=C/CN(C)Cc2coc3ccccc23)c(F)c1 [Compound IA-35, (E)-N-methyl-N-[(benzofuran-3-yl)methylene]-3-(2-fluoro-4-methoxyphenyl)-prop-2-en-1-amine]",IC50,S. aureus strain Newman,> 1 µM
"CN(C/C=C/C=C/c1ccc(-c2ccccc2)cc1)Cc1coc2ccccc12 [Compound IA-39, (2E,4E)-5-([1,1′-biphenyl]-4-yl)-N-(benzofuran-3-ylmethyl)-N-methylpenta-2,4-dien-1-amine]",IC50,S. aureus strain Newman,> 1 µM
"CN(C/C=C/c1ccc(F)cc1)Cc1coc2ccccc12 [Compound IA-4, (E)-N-methyl-N-[(benzofuran-3-yl)methylene]-3-(4-fluorophenyl)prop-2-en-1-amine]",IC50,S. aureus strain Newman,0.0741 ± 0.0027 µM
"CN(C/C=C/c1ccc(C(F)F)cc1)Cc1coc2ccccc12 [Compound IA-6, (E)-N-methyl-N-[(benzofuran-3-yl)methylene]-3-(4-difluoromethylphenyl)-prop-2-en-1-amine]",IC50,S. aureus strain Newman,0.0064 ± 0.0001 µM
"CN(C/C=C/c1ccc(Br)cc1)Cc1coc2ccccc12 [Compound IA-5, (E)-N-methyl-N-[(benzofuran-3-yl)methylene]-3-(4-bromophenyl)prop-2-en-1-amine]",IC50,S. aureus strain Newman,0.0025 ± 0.0003 µM
